Measured values: patent US11242365B2, “FOXM1-derived peptide, and vaccine including same” (OncoTherapy Science, Inc., priority 2015, dated 2022)
“Also recorded” adds a separate entry of the source.

What was measured:
[1] = system: target cells (C1R-A33) pulsed with peptide; assay: IFN-gamma ELISA of CTL lines (HLA-A*33:03); assay type: cell-based, human; conditions: CTL line against peptide-pulsed C1R-A33
Experimental: CTLs were propagated using methods similar to those reported by Riddell et al. (Walter E A et al., N Engl J Med 1995, 333(16): 1038-44; Riddell S R et al., Nat Med 1996, 2(2): 216-23). The CTLs were cultured in 25 ml 5% ABS/AIM-V medium together with two types of Mitomycin C-treated human B lymphoblastoid cell lines (5×10^6 cells/25 ml medium each) and an anti-CD3 antibody (final concentration: 40 ng/ml). On the day after beginning of the culturing, IL-2 (final concentration: 120 IU/ml) was added to the culture. On days 5, 8 and 11, the medium was changed to a 5% ABS/AIM-V medium containing IL-2 (final concentration: 30 IU/ml) (Tanaka H et al., Br J Cancer 2001, 84(1): 94-9; Umano Y et al., Br J Cancer 2001, 84(8): 1052-7; Uchida N et al., Clin Cancer Res 2004, 10(24): 8577-86; Suda T et al., Cancer Sci 2006, 97(5): 411-9; Watanabe T et al., Cancer Sci 2005, 96(8): 498-506).
(§1) Peptide-pulsed C1R-A33 (1×10^4 cells/well) was prepared as the target cell. The IFN-gamma ELISPOT assay and IFN-gamma ELISA were performed according to the assay kit manufacturer's manual.

[2] = system: target cells (C1R-A33) pulsed with peptide; assay: IFN-gamma ELISA of CTL clones established by limiting dilution (HLA-A*33:03); assay type: cell-based, human; conditions: CTL clone against peptide-pulsed C1R-A33
Experimental: (§2) After induction of CTLs in vitro, the CTLs were seeded onto 96-well round-bottomed microplates (Nalge Nunc International) at 1 cell/well or 10 cells/well. The CTLs were cultured with two types of Mitomycin C-treated human B lymphoblastoid cell lines (1×10^4 cells/well each) in a total of 150 micro-l/well 5% ABS/AIM-V medium with an anti-CD3 antibody (final concentration: 30 ng/ml) and IL-2 (final concentration: 125 IU/ml). Ten days later, 50 micro-l 5% ABS/AIM-V medium containing 500 IU/ml IL-2 was added to the culture.
as §1

peptide-pulsed C1R-A33 = assay: In vitro CTL induction, IFN-gamma ELISPOT assay (HLA-A*33:03); assay type: cell-based, human; conditions: CD8 positive T cells of HLA-A*33:03-positive donors after three stimulations with peptide-pulsed DCs; peptide-pulsed vs non-pulsed C1R-A33
Experimental: (§3) Monocyte-derived dendritic cells (DCs) were used as the antigen-presenting cell to induce a specific cytotoxic T lymphocyte (CTL) response against peptides presented on human leukocyte antigens (HLAs). As already reported in literatures, DCs were generated in vitro (Nakahara S et al., Cancer Res 2003, 63(14): 4112-8). Specifically, peripheral-blood mononuclear cells (PBMCs) collected from healthy volunteers (HLA-A*33:03-positive) with the Ficoll-Paque plus solution (Pharmacia) were seeded in plastic tissue culture dishes (Corning) to let the monocytes in the PBMCs adhere to the dishes. This was cultured in the presence of 1000 IU/ml granulocyte macrophage colony-stimulating factor (R&D System) and 1000 IU/ml interleukin (IL)-4 (R&D System) for seven days. An AIM-V medium (Invitrogen) containing 5% inactivated AB-type serum (ABS) was used as the medium. DCs that were induced to differentiate from monocytes using the cytokines were pulsed with 20 micro-g/ml of each synthesized peptide (37 degrees C., three hours). Peptide pulsing was carried out in an AIM-V medium containing 3 micro-g/ml beta 2-microglobulin. These peptide-pulsed DCs were inactivated by X-ray irradiation (20 Gy), mixed in a 1:20 ratio with autologous CD8 positive T cells obtained by positive selection using the CD8 Positive Isolation Kit (Invitrogen) (1.5×10^4 DCs and 3×10^5 CD8 positive T cells), and cultured in a 48-well plate (Corning). Each well contained 0.5 ml of the 5% ABS/AIM-V medium, and IL-7 (R&D System) was added thereto (final concentration: 10 ng/ml). Two days after the start of the culture, IL-2 (Novartis) was added (final concentration: 20 IU/ml). On day 7 and day 14 of culture, the CD8 positive T cells were further stimulated with peptide-pulsed DCs. The DCs were prepared at the time of use by the same method as above. […]

peptide-pulsed C1R-A01 = assay: In vitro CTL induction, IFN-gamma ELISPOT assay (HLA-A*01:01); assay type: cell-based, human; conditions: CD8 positive T cells of HLA-A*01:01-positive donors after three stimulations with peptide-pulsed DCs; peptide-pulsed vs non-pulsed C1R-A01
Experimental: as §3, with “(CTL)” for “(CTL) response”, “(HLA-A*01:01-positive)” for “(HLA-A*33:03-positive) with the Ficoll-Paque plus solution (Pharmacia)”, “by” for “by positive selection”, “(Corning).” for “(Corning). Each well contained 0.5 ml of the 5% ABS/AIM-V medium, and IL-7 (R&D System) was added thereto (final concentration: 10 ng/ml). Two days after the start of the culture, IL-2 (Novartis) was added (final concentration: 20 IU/ml). On day 7 and day 14 of culture, the CD8 positive T cells were further stimulated with peptide-pulsed DCs. The DCs were prepared at the time of use by the same method as above.”

[3] = system: target cells (C1R-A01) pulsed with peptide; assay: IFN-gamma ELISA of CTL clones established by limiting dilution (HLA-A*01:01); assay type: cell-based, human; conditions: CTL clone against peptide-pulsed C1R-A01; listed as FOXM1-A01-9-233
Experimental: as §2
Peptide-pulsed C1R-A01 (1×10^4 cells/well) was prepared as the target cell. The IFN-gamma ELISPOT assay and IFN-gamma ELISA were performed according to the assay kit manufacturer's manual.

[4] = system: COS7 cells expressing FOXM1 and HLA-A*33:03; assay: IFN-gamma production of CTL clone against target cells expressing FOXM1 and HLA-A*33:03; assay type: cell-based, African green monkey
Excerpt: A cDNA encoding the FOXM1 or HLA-A*33:03 gene was amplified by PCR. The PCR-amplified product was each incorporated into an expression vector. Either or both of the FOXM1 gene-expressing vector and the HLA-A*33:03 gene-expressing vector were introduced into COS7 cells, which is a cell line negative for HLA, using Lipofectamine 2000 (Invitrogen). On the day after gene introduction, COS7 cells were detached and harvested using versene (Invitrogen), and used as the target cell for confirmation of IFN-gamma production (5×10^4 cells/well).
IFN-gamma production of the FOXM1-A33-9-308 (SEQ ID NO: 2)-specific CTL clone against target cells expressing FOXM1 and HLA-A*33:03 was investigated. COS7 cells expressing both FOXM1 and HLA-A*33:03 were prepared as the target cell. COS7 cells expressing either one of FOXM1 and HLA-A*33:03 were prepared as the negative control cell. […] This clearly proves that FOXM1-A33-9-308 (SEQ ID NO: 2) is a peptide generated by antigen processing, and is presented on the cell surface with the HLA-A*33:03 molecule and recognized by CTLs.

AARDVNLPR (a peptide derived from FOXM1) [SEQ ID NO: 7]
IFN-gamma production by the CTL line (ELISA) ([1]; listed as FOXM1-A33-9-146): observed; also recorded: CTL lines that produce IFN-gamma in a peptide-specific manner were established
peptide-specific IFN-gamma production of CTL clone (ELISA) ([2]; listed as FOXM1-A33-9-146): showed a peptide-specific IFN-gamma production

ASLMSSELAR (a peptide derived from FOXM1) [SEQ ID NO: 46]
peptide-specific IFN-gamma production (ELISPOT) (peptide-pulsed C1R-A33): observed

KTELPLGARR (a peptide derived from FOXM1) [SEQ ID NO: 61]
peptide-specific IFN-gamma production (ELISPOT) (peptide-pulsed C1R-A01): observed

MSSELARHSK (a peptide derived from FOXM1) [SEQ ID NO: 39]
IFN-gamma production by the CTL line (ELISA) ([1]; listed as FOXM1-A33-10-391): observed; also recorded: CTL lines that produce IFN-gamma in a peptide-specific manner were established

NLSLHDMFVR (a peptide derived from FOXM1) [SEQ ID NO: 25]
peptide-specific IFN-gamma production (ELISPOT) (peptide-pulsed C1R-A33): not observed

SLSNIQWLR (a peptide derived from FOXM1) [SEQ ID NO: 1]
peptide-specific IFN-gamma production (ELISPOT) (peptide-pulsed C1R-A33): observed

VSERPPYSY (a peptide derived from FOXM1) [SEQ ID NO: 48]
peptide-specific IFN-gamma production of CTL clone (ELISA) [3]: showed a peptide-specific IFN-gamma production

WIEDHFPYFK (a peptide derived from FOXM1) [SEQ ID NO: 42]
IFN-gamma production by the CTL line (ELISA) ([1]; listed as FOXM1-A33-10-265): observed; also recorded: CTL lines that produce IFN-gamma in a peptide-specific manner were established
peptide-specific IFN-gamma production (ELISPOT) (peptide-pulsed C1R-A01): not observed

WTIHPSANR (a peptide derived from FOXM1) [SEQ ID NO: 2]
IFN-gamma production by the CTL line (ELISA) ([1]; listed as FOXM1-A33-9-308): observed; also recorded: CTL lines that produce IFN-gamma in a peptide-specific manner were established
peptide-specific IFN-gamma production of CTL clone (ELISA) ([2]; listed as FOXM1-A33-9-308): showed a peptide-specific IFN-gamma production
IFN-gamma production of peptide-specific CTL clone ([4]; COS7 cells expressing both FOXM1 and HLA-A*33:03): showed IFN-gamma production
IFN-gamma production of peptide-specific CTL clone ([4]; negative control: COS7 cells expressing either one of FOXM1 and HLA-A*33:03, listed as FOXM1-A33-9-308): a significant IFN-gamma production was not observed; also recorded: a significant IFN-gamma production was not shown
